Tests used:
[1] = Zeta potential of lipid nanoparticles; assay type: physicochemical
Method: The average particle size (number average value), ζ-average particle size, and polydispersity index (PdI) of the lipid nanoparticles in PBS(-) (pH 7.4), and the zeta potential in 10 mM HEPES buffer (pH 7.4) were measured using an analyzer "Zetasizer Nano ZS ZEN3600" (manufactured by Malvern) utilizing dynamic light scattering.

[2] = Apparent pKa of lipid nanoparticles (TNS)
Method: The apparent pKa of the lipid nanoparticles was measured using p-toluenesulfonic acid (TNS). First, TNS (final concentration: 0.75 µM) and lipid nanoparticles (final concentration: 30 µM) were mixed in a buffer (200 mL) adjusted to each pH (pH 3.5 to 9.5). As the buffer, 20 mM citrate buffer, 20 mM sodium phosphate buffer, or 20 mM Tris-HCl buffer containing 130 mM NaCl was used. The fluorescence intensity of the prepared mixture was measured using a fluorescence spectrophotometer (Varioskan Lux, manufactured by Thermo Fisher Scientific) with the settings of λex=321 nm and λem=447 nm. Among the measured values, the highest value and the lowest value were set as 100% and 0% ionization degrees, respectively, and the pH showing a 50% ionization degree was calculated as the apparent pKa. The content ratio (%) of cationically charged pH-sensitive cationic lipid was calculated using the Henderson-Hasselbalch equation.

[3] = Encapsulation rate of lipid nanoparticles (Ribogreen); assay type: physicochemical
How it was run: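 Ribogreen fluorescence (Ex/Em 500/525 nm) measured after mixing sample 1:1 with 10 mM HEPES pH 7.4 buffer with or without Triton X-100. mRNA quantified from a calibration curve of known mRNA dilutions; encapsulation rate (%) calculated from Triton(+) versus Triton(−) signals.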

liver [4] = assay: EGFP expression in liver tissue sections of mice administered EGFP mRNA-loaded lipid nanoparticles (confocal microscopy); assay type: in vivo, Balb/c mice; conditions: for fluorescence of EGFP in the liver tissues / gene expression in hepatocytes: Example 27, Fig. 6, EGFP mRNA-loaded lipid nanoparticles TxT/DSPC/chol/PEG-DMG=50/3/47/1.5 (mol%), 24 hours post-administration
How it was run: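 Balb/c mice received EGFP mRNA-loaded lipid nanoparticles at 0.2 mg mRNA/kg, with DyLight-649 tomato lectin given i.v. at 40 µg/mouse at 23 h 50 min to mark vascular endothelium. Livers taken at 24 h were sectioned, Hoechst 33342-stained (1 µg/mL), and imaged by confocal laser scanning microscopy.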

liver [5] = assay: Fluc activity in the liver of mice administered Fluc mRNA-loaded lipid nanoparticles; assay type: in vivo, BALB/c mice; conditions: for Fluc activity in the liver at 6, 24, and 48 hours after administration: Example 28, Fig. 7, TxT-5-5A12β versus TxT-5-5A14 nanoparticles, 50/3/47/1.5 (mol%)
Method: Lipid nanoparticles were administered to mice by intravenous injection into the tail vein using a 27G needle. Unless otherwise specified, BALB/c mice (4 to 5 weeks old, female) were used.
First, BALB/c mice (female, 4 weeks old) were intravenously injected with lipid nanoparticles encapsulating Fluc mRNA (Fluc mRNA-loaded lipid nanoparticles) at a dose of 0.1 mg mRNA/kg. Six hours after intravenous injection, the mice were euthanized, each tissue was collected, frozen in liquid nitrogen, and stored at -80°C. The tissues were homogenized in passive lysis buffer (manufactured by Promega) using a bead-type cell disruptor (Micro Smash MS-100R, manufactured by TOMY Seiko). Tissue debris was removed by centrifugation, and the supernatant was collected. Fluc activity in the supernatant was measured using the Luciferase Assay System (E1500, manufactured by Promega) according to the manufacturer's protocol. Luminescence was measured using a luminometer (Luminescencer-PSN, manufactured by ATTO). Protein concentration was determined using a commercially available assay kit (BCA Protein Assay Kit, manufactured by Pierce). Fluc activity was expressed as relative light units (RLU) per mg of protein.
Subsequently, lipid nanoparticles encapsulating Fluc mRNA prepared using TxT-5-5A10, TxT-5-5A12, TxT-5-5A12β, TxT-5-5A14, and TxT-5-5A16 were administered to mice to evaluate luciferase expression levels (Fluc activity) in various tissues. Specifically, each Fluc mRNA-loaded lipid nanoparticle was administered to Balb/c mice at a dose of 0.1 mg mRNA/kg. Six hours after administration, the mice were euthanized, and their organs were collected to measure Fluc activity (RLU/mg protein) (N = 2 or 4).

[6] = Table 1, Fluc mRNA-loaded lipid nanoparticles, TxT/DSPC/chol/PEG-DMG=50/15/35/1.5 (mol%)
[7] = Table 3, Fluc mRNA-loaded lipid nanoparticles, TxT/DSPC/chol/PEG-DMG=50/3/47/1.5 (mol%)
[8] = Table 4, Fluc mRNA-loaded lipid nanoparticles, TxT-5-5A14/DSPC/chol/PEG-DMG=50/3/47/1.5, SM-102, ALC-0315 or MC3/DSPC/chol/PEG-DMG=50/10/40/1.5 (mol%)
[9] = Table 5, EGFP mRNA-loaded lipid nanoparticles, TxT/DSPC/chol/PEG-DMG=50/3/47/1.5 (mol%), total flow rate 3.0 mL/min
[10] = Table 6 (Example 28), Fluc mRNA-loaded lipid nanoparticles, TxT/DSPC/chol/PEG-DMG=50/3/47/1.5 (mol%)
[11] = Table 7, hEPO mRNA-loaded lipid nanoparticles, TxT/DSPC/chol/PEG-DMG=50/3/47/1.5, SM-102/DSPC/chol/PEG-DMG=50/10/40/1.5 (mol%)
[12] = Table 8 (Example 32), lipid nanoparticles for TTR-targeted genome editing, Cas9-mRNA and TTR-gRNA 1:2 (N/P = 6.0), TxT/DSPC/chol/PEG-DMG = 50/3/47/1.5 (mol%)
[13] = Table 9 (Example 33), lipid nanoparticles for TTR-targeted genome editing, Cas9-mRNA and TTR-gRNA 1:2 (N/P = 6.0), TxT-5-5A14/DSPC/chol/PEG-DMG = 50/3/47/1.5 (mol%)
[14] = Table 10 (Example 34), lipid nanoparticles for PCSK9-targeted genome editing, Cas9-mRNA and PCSK9-gRNA 1:2 (N/P = 6.0), TxT-5-5A14/DSPC/chol/PEG-DMG = 50/3/47/1.5 (mol%)
[15] = Table 1, apparent pKa of Fluc mRNA-loaded lipid nanoparticles, TxT/DSPC/chol/PEG-DMG=50/15/35/1.5 (mol%)

SMILES | ζ-potential [1, 6] [mV] | ζ-potential [1, 7] [mV] | ζ-potential [1, 9] [mV] | ζ-potential [1, 10] [mV] | ζ-potential [1, 11] [mV] | ζ-potential [1, 12] [mV] | pKa [2, 15] | pKa [2, 7] | mRNA concentration [3, 6] [µg/µL] | mRNA encapsulation rate [3, 6] [%] | mRNA concentration [3, 7] [µg/µL] | mRNA encapsulation rate [3, 7] [%] | mRNA concentration [3, 9] [µg/µL] | mRNA encapsulation rate [3, 9] [%] | mRNA concentration [3, 10] [µg/µL] | mRNA encapsulation rate [3, 10] [%] | mRNA concentration [3, 11] [µg/µL] | mRNA encapsulation rate [3, 11] [%] | mRNA concentration [3, 12] [µg/µL] | mRNA encapsulation rate [3, 12] [%] | other results
CCCCCCCN(CCCCCCC)C(=O)CCCC(=O)OCC(COC(=O)CCCC(=O)N(CCCCCCC)CCCCCCC)(COC(=O)CCCC(=O)N(CCCCCCC)CCCCCCC)NC(=O)CCN1CCCCC1 [TxT-5-5A14, 2-(((5-(diheptylamino)-5-oxopentanoyl)oxy)methyl)-2-(3-(piperidin-1-yl)propanamido)propane-1,3-diyl bis(5-(diheptylamino)-5-oxopentanoate)] | -3.4 | -7.5 | -13.0 | -6.4 | -1.4 | -5.5 | 4.99 | 6.46 | 0.025 | 98.8 | 0.022 | 98.6 | 0.023 | 99.0 | 0.021 | 98.2 | 0.022 | 99.3 | 0.467 | 96.5 | ζ-potential [1, 8]: -8.9 mV; ζ-potential [1, 13]: -4.0 mV; ζ-potential [1, 14]: -1.6 mV; pKa [2, 8]: 6.53; mRNA concentration [3, 8]: 0.022 µg/µL; mRNA encapsulation rate [3, 8]: 99.4%; mRNA concentration [3, 13]: 0.037 µg/µL; mRNA encapsulation rate [3, 13]: 99.1%; mRNA concentration [3, 14]: 0.311 µg/µL; mRNA encapsulation rate [3, 14]: 97.1%; GFP expression in cell types of the liver (liver [4]; Example 26, Fig. 5, EGFP mRNA-loaded lipid nanoparticles 50/3/47/1.5 (mol%), 0.2 mg mRNA/kg, 24 hours after administration): GFP expression was observed not only in hepatocytes but also in vascular endothelial cells; fluorescence of EGFP in the liver tissues (liver [4]): fluorescence of EGFP was observed; gene expression in hepatocytes (liver [4]): notably high levels of gene expression; Fluc activity (liver), comparison among TxT lipids (liver [5]; Example 24, Fig. 3A, TxT/DSPC/chol/PEG-DMG=50/3/47/1.5 (mol%), 0.1 mg mRNA/kg, six hours): highest Fluc activity; Fluc activity in the liver compared to lipid nanoparticles comprising other cationic lipids (SM-102, ALC-0315, MC3) (liver [5]; Example 25, Fig. 4, TxT-5-5A14 50/3/47/1.5, comparators 50/10/40/1.5 (mol%), 0.1 mg mRNA/kg, six hours, N = 3): significantly higher Fluc activity; Fluc activity in the liver at 6, 24, and 48 hours after administration (liver [5]; N = 3): comparable levels of gene expression at all time points
CCCCCCC(CCCC)CNC(=O)CCCC(=O)OCC(COC(=O)CCCC(=O)NCC(CCCC)CCCCCC)(COC(=O)CCCC(=O)NCC(CCCC)CCCCCC)NC(=O)CCN1CCCCC1 (stereo not drawn) [TxT-5-5A12β, 2-(((5-((2-butyloctyl)amino)-5-oxopentanoyl)oxy)methyl)-2-(3-(piperidin-1-yl)propanamido)propane-1,3-diyl bis(5-((2-butyloctyl)amino)-5-oxopentanoate)] | -6.0 | -5.6 | -7.8 | -8.4 | -3.0 | -3.8 | 4.90 | 6.53 | 0.024 | 97.0 | 0.023 | 99.5 | 0.016 | 99.1 | 0.020 | 98.0 | 0.017 | 99.5 | 0.412 | 99.1 | fluorescence of EGFP in the liver tissues (liver [4]): fluorescence of EGFP was observed; gene expression in hepatocytes (liver [4]): notably high levels of gene expression; Fluc activity in the liver at 6, 24, and 48 hours after administration (liver [5]; N = 3): comparable levels of gene expression at all time points
